Where two headings read alike, the source gives them in different places.
Assays:
[1] = 1O2 quantum yield determination with ABDA; conditions: H2O/DMSO (95:5); 470 nm blue light
Experimental: Fresh stock air-equilibrated solutions of photosensitizers 1–2 and 7–8 (1.00 × 10^–3 M) and ABDA (6.00 × 10^–4 M) in H2O/DMSO (95:5) were prepared. In a quartz cell, 0.50 mL of ABDA solution, 0.03 mL of complex solution, and 2.47 mL of H2O/DMSO (95:5) were mixed to prepare a final solution with 1.00 × 10^–4 M ABDA and 1.00 × 10^–5 M complex. The final solutions were studied by recording UV–vis absorption spectra at room temperature under blue light irradiation (λexc = 470 nm, “Medusa” photoreactor) for 30 s irradiation intervals during a total exposure period of 5 min. Absorption UV–vis spectra were recorded after every irradiation interval.
The consumption of ABDA probe was measured by monitoring its absorbance intensity decrease at 402 nm with irradiation time. ^1O2 generation quantum yield (ϕΔ) was calculated from eq 1 using Rose Bengal or [Ru(bpy)3]^2+ as reference. In this case, the ϕΔ values of the references in H2O/DMSO (95:5) are 0.76 for Rose Bengal[73] and 0.18 for [Ru(bpy)3]Cl2.[136] The reproducibility of the results was confirmed by performing each experiment three times.

MRC-5 = test: CyQUANT cell viability assay, dark or blue light; type: cell-based, human; conditions: for PI (IC50,dark/IC50,light): MRC-5, blue light 460 nm; for IC50: 48 h
Experimental: (§1) Cells were cultured in 96-well plates at a density of 3000 (A549), 2500 (HeLa), or 5000 (PC-3, 1BR.3.G, and MRC-5) cells per well in cell culture medium and allowed to attach for 24 h. Solutions of the complexes at different concentrations were prepared for cell treatments. In all cases, the solid compounds were weighed using an analytical balance (Mettler Toledo AX205DR) to ensure precise measurements. Subsequently, 5 mM solutions were prepared using DMSO. Solutions were then diluted in water to reach a concentration of 1 mM and then, aliquots were taken and diluted in culture medium to obtain solutions ranging from 0 to 50 μM. […] The cells were treated with these solutions in dark conditions or following the photoactivation protocol (see below). 48 h later the treatments were removed, and cells were washed with phosphate-buffered saline (PBS).
(§2) Initially, the effect of the complexes on the cell viability was determined by the 3-(4,5-dimethylthiazol-2-yl)-2,5-diphenyltetrazolium bromide (MTT) assay.[147] The cells were incubated for 2 h with 100 μL of culture medium together with 10 μL of MTT (Sigma-Aldrich) at 0.5 mg/mL. After discarding the medium, DMSO was added to each well to dissolve the purple formazan crystals. The absorbance of each well was determined on a Multiscan Plate Reader (Synergy 4, Biotek, Winooski) at a wavelength of 570 nm. Cell viability was also assessed using the CyQUANT Direct Cell Proliferation Assay (Thermo Fisher Scientific), following the manufacturer’s instructions. Briefly, after the treatments, the cells were washed with PBS, and an equal volume of culture medium and CyQUANT mix was added to each well. The plates were then incubated for 1 h at 37 °C. Subsequently, the fluorescence intensity was bottom read using a Multiscan Plate Reader (Synergy 4, Biotek, Winooski) with excitation and emission filters of 485 and 528 nm, respectively. In both assays, at least three replicates were measured for each treatment. The concentration that reduces the cell viability by 50% (IC50) was established using the Gen5 software (BioTek). Three independent experiments were carried out for each compound. […] The phototoxicity index (PI = IC50,dark/IC50,light) was determined.
(§3) To assess the photodynamic activity of the complexes, cells were incubated with the complexes for 4 h to enable their intracellular accumulation. The cells were then irradiated with light with a wavelength of 460 nm (blue), 530 nm (green), or 655 nm (red) for 1 h using a LED system (LuxLight) with an effective power of 6.7 mW cm^–2, which provides a total light dose of 24.1 J cm^–2. The LED system was positioned at 25 mm from the cell culture plates.

HeLa = test: CyQUANT cell viability assay, dark or blue light; type: cell-based, human; conditions: for IC50: 48 h; for IC50 / PI (IC50,dark/IC50,light): CyQUANT; for PI (IC50,dark/IC50,light): blue light 460 nm
Experimental: as §1, §2, §3

PC-3 = test: CyQUANT cell viability assay, dark or blue light; type: cell-based, human; conditions: for IC50 / PI (IC50,dark/IC50,light): PC-3, CyQUANT; for IC50: 48 h; for PI (IC50,dark/IC50,light): blue light 460 nm; for PI/Dose: PC‐3, 460 nm, dose 24.1 J cm‐2, PI from CyQUANT
Experimental: as §1, §2, §3

A549 cells = test: Superoxide anion production (ROS-ID Superoxide Detection Kit); type: cell-based, human; conditions: 10 nM, photoactivated with blue light
Experimental: The types of ROS generated by the treatments were also investigated. Superoxide anion (O2^•–) production was monitored using the ROS-ID Superoxide Detection Kit (Enzo Life Sciences), which contains a cell-permeable probe that selectively emits orange fluorescence upon reacting with O2^•–. Following the treatments, cells were harvested and incubated with the probe for 30 min at 37 °C. Fluorescence emission from 1 × 10^4 cells was measured by flow cytometry (Ex/Em: 550/620 nm) and compared to that of control untreated cells. In addition, hydrogen peroxide (H2O2) generation was measured using the Hydrogen Peroxide Assay Kit (Cell-based) (Abcam). […] After 1 h of incubation at 37 °C, the median fluorescence of 1 × 10^4 cells was determined by flow cytometry (Ex/Em = 490/520 nm) and compared to that of control cells. All experiments were conducted in triplicate.

[2] = Lipophilicity by the shake flask method; type: physicochemical; conditions: 1-octanol/water; for logD9.2: carbonate–bicarbonate buffer pH 9.2
Experimental: The partition coefficients of complexes 5, 6, 7, and 8 were determined by the standard “shake flask” method.[37],[84],[85] Octanol-saturated water (OSW) and water-saturated octanol (WSO) were prepared using analytical grade 1-octanol and ultrapure water. The complexes were dissolved in WSO and molar extinction coefficient was determined. Then, 2 mL of 25 μg/mL complex in WSO was shaken with 2 mL of OSW at 1500 rpm for 6 h at room temperature. To separate the phases, centrifugation was done at 4000 rpm for 10 min. The absorbance of WSO phase before and after shaking was measured. The absorbance of WSO before mixing minus the absorbance of WSO after mixing corresponds to the absorbance of the complex in OSW. The distribution coefficients (log Do/w) of the complexes were obtained from the ratio of the complexes present in 1-octanol and the aqueous phase (eq 3). Each experiment was repeated three times. To avoid protonation in complexes 5 and 6, a carbonate–bicarbonate buffer at pH 9.2 in OSW was used. [drawing 24] 3 where A1-oct corresponds to the absorbance of WSO phase and Atotal is the actual concentration of the WSO before shaking.

[3] = MRC-5, blue light 460 nm 1 h (24.1 J cm^–2), read-out: IC50,light
[4] = MRC-5 nonmalignant lung fibroblasts, dark, read-out: IC50,dark
[5] = blue light 460 nm 1 h (24.1 J cm^–2), read-out: IC50,light

Row | Compound | 1O2 generation quantum yield (ϕΔ), ABDA [1] | PI (IC50,dark/IC50,light) (MRC-5) | IC50 (MRC-5; [3]) [µM] | IC50 (MRC-5; [4]) [µM] | IC50 (HeLa; [5]) [µM] | PI (IC50,dark/IC50,light) (HeLa) | IC50 (HeLa; dark, read-out: IC50,dark) [µM] | IC50 (PC-3; [5]) [µM] | PI (IC50,dark/IC50,light) (PC-3) | IC50 (PC-3; dark, read-out: IC50,dark) [µM] | PI/Dose (PC-3; listed as 4) | PI/Dose (PC-3; listed as Complex 4) | superoxide anion (O2•–) increase in mean fluorescence (A549 cells) [fold] | logD9.2 [2] | PI/Dose (HeLa; 460 nm, dose 24.1 J cm‐2, PI from CyQUANT) | logP [2] | PI/Dose (PC-3)
1 | Cc1c(C)c(C)[c-](C)c1C.[Cl][Ir]1[c]2cccc3c4nc5ccccc5nc4c4ccc[n+]1c4c23 [complex 1, [(η^5-C5Me5)IrCl(pbpz)]] | 0.1913 | – | – | – | – | – | – | – | – | – | – | – | – | – | – | – | –
2 | Cc1c(C)c(C)[c-](C)c1C.F[B-](F)(F)F.c1ccc2cc3nc4c5ccc[n+]6c5c5[c](cccc5c4nc3cc2c1)[Ir]6[n+]1cc[nH]c1 [complex 4, [(η^5-C5Me5)Ir(Im)(pbpn)]BF4] | – | 790 | 0.0031 ± 0.001 | 2.48 ± 0.2 | 0.0042 ± 0.0009 | 370 | 1.55 ± 0.3 | 0.0011 ± 0.0006 | 2022 | 2.28 ± 0.7 | 84 | 83.9 | 2.4 | – | – | – | –
3 | Cc1c(C)c(C)[c-](C)c1C.F[B-](F)(F)F.c1ccc2nc3c4ccc[n+]5c4c4[c](cccc4c3nc2c1)[Ir]5[n+]1ccn(CCN2CCCCC2)c1 [complex 5, [(η^5-C5Me5)Ir(Imepip)(pbpz)]BF4] | – | – | – | – | – | – | – | – | – | – | – | – | – | 1.10 ± 0.10 | – | – | –
4 | Cc1c(C)c(C)[c-](C)c1C.F[B-](F)(F)F.c1ccc2cc3nc4c5ccc[n+]6c5c5[c](cccc5c4nc3cc2c1)[Ir]6[n+]1ccn(CCN2CCCCC2)c1 [complex 6, [(η^5-C5Me5) Ir(Imepip)(pbpn)]BF4] | – | 929 | 0.0008 ± 0.0002 | 0.7 ± 0.08 | 0.0007 ± 0.0002 | 1031 | 0.7 ± 0.27 | 0.0012 ± 0.001 | 961 | 1.16 ± 0.16 | – | – | 2.8 | 1.39 ± 0.07 | 42.7 | – | –
5 | Cc1c(C)c(C)[c-](C)c1C.F[B-](F)(F)F.c1ccc(Cn2cc[n+]([Ir]3[c]4cccc5c6nc7ccccc7nc6c6ccc[n+]3c6c45)c2)cc1 [complex 7, [(η^5-C5Me5)Ir(bzIm)(pbpz)]BF4] | 0.0526 | – | – | – | – | – | – | – | – | – | – | – | – | – | – | 1.65 ± 0.16 | –
6 | Cc1c(C)c(C)[c-](C)c1C.F[B-](F)(F)F.c1ccc(Cn2cc[n+]([Ir]3[c]4cccc5c6nc7cc8ccccc8cc7nc6c6ccc[n+]3c6c45)c2)cc1 [complex 8, [(η^5-C5Me5)Ir(bzIm)(pbpn)]BF4] | 0.4986 | 863 | 0.0008 ± 0.0001 | 0.68 ± 0.1 | 0.0008 ± 0.0002 | 622 | 0.51 ± 0.1 | 0.0005 ± 0.0003 | 1179 | 0.64 ± 0.1 | – | – | 2.6 | – | – | 1.13 ± 0.03 | 48.9
